pIC50: −log10 of the molar value. Counter-ions that a name gives are not always drawn. Like-named read-outs stand apart in the source and are kept apart here.
Assays:
Experiment in all cases: biochemical
MMP-13 = biological target: T1, MMP-13 (Homo sapiens, UniProt P45452); conditions: for pIC50: recombinant human MMP-13, MCA peptide substrate 4 μM, pH 7.5, room temperature, read-out: MMP-13 IC50
T1 construct: made in house; host or cells: baculovirus / insect cells
Outline: (§1)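 Assay buffer 100 mM Tris-HCl, 100 mM NaCl, 10 mM CaCl2, pH 7.5. Activated MMP + inhibitor, 5 min RT; then methoxycoumarin peptide substrate, 4 μM final. Readout fluorescence; IC50 calculated.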

MMP-2 = biological target: T2, MMP-2 (Homo sapiens, UniProt P08253); conditions: for pIC50: recombinant human MMP-2, MCA peptide substrate 4 μM, pH 7.5, room temperature, read-out: MMP-2 IC50
T2 construct: made in house; provided by Dr. Gregory Goldberg, Washington University
T2 sequence (P08253 110-660): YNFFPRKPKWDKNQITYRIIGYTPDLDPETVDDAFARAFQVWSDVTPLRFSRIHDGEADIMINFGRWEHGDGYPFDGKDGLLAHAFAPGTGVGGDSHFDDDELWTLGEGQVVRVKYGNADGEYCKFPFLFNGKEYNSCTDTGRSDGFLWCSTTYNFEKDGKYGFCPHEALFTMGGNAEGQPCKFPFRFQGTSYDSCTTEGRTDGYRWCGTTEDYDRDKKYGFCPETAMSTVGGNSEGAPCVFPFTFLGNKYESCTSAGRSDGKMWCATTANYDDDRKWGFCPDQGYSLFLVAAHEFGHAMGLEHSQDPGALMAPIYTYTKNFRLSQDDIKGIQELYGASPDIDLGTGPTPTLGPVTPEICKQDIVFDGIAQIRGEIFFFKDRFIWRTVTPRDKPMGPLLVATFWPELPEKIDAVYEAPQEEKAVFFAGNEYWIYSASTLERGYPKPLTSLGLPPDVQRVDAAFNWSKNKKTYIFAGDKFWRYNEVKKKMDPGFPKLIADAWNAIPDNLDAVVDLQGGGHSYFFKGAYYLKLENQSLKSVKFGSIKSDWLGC
Outline: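 APMA- or trypsin-activated enzymes were preincubated with inhibitor for 5 min at room temperature, then the fluorogenic substrate MCA-Pro-Leu-Gly-Leu-Dpa-Ala-Arg-NH2 was added to a final 4 μM.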

MMP-1 = biological target: T3, MMP-1 (Homo sapiens, UniProt P03956); conditions: read-out: MMP-1 IC50
T3 construct: made in house; host or cells: transfected HT-1080 cells (provided by Dr. Harold Welgus, Washington University)
T3 sequence (P03956 100-469): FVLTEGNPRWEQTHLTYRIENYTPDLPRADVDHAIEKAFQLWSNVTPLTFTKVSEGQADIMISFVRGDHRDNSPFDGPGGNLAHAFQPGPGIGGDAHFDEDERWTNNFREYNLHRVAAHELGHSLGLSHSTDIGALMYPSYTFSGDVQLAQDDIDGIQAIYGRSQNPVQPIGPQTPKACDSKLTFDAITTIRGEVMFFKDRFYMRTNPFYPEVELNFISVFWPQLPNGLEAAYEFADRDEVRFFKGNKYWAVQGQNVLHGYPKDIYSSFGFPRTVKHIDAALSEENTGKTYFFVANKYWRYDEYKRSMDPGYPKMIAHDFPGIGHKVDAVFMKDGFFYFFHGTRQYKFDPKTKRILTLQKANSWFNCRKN
Outline: as §1

[1] = recombinant human MMP-1, MCA peptide substrate 4 μM, pH 7.5, room temperature

| Compound | pIC50 (MMP-13) | pIC50 (MMP-2) | pIC50 (MMP-1; [1]) | pIC50 (MMP-1) | IC50 (MMP-13; MMP-13 IC50 (nM)) [nM] | IC50 (MMP-2; MMP-2 IC50 (nM)) [nM] |
| --- | --- | --- | --- | --- | --- | --- |
| O=C(NO)C1(S(=O)(=O)c2ccc(N3CCC(OCc4cccc(F)c4)CC3)cc2)CCOCC1 [Example 575] | 7.97 | 6.96 | < 5.00 | – | – | – |
| CC(C)OCc1ccc(COC2CCN(c3ccc(S(=O)(=O)C4(C(=O)NO)CCOCC4)cc3)CC2)cc1 [Example 554] | 8.43 | 6.85 | < 5.00 | – | – | – |
| O=C(NO)C1(S(=O)(=O)c2ccc(OC3CCC(OCc4cccc(Cl)c4)C3)cc2)CCOCC1 (stereo not drawn) [Example 669] | 8.37 | 7.64 | < 5.00 | – | – | – |
| O=C(NO)C1(S(=O)(=O)c2ccc(Oc3ccc(OC(F)(F)F)cc3)cc2)CCS(=O)(=O)CC1 [Example 157] | 9.30 | 9.70 | < 5.00 | – | – | – |
| CN(C)CCN(C)CC(=O)N1CCC(C(=O)NO)(S(=O)(=O)c2ccc(Oc3ccc(C(F)(F)F)cc3)cc2)CC1 [Example 323] | 8.89 | 9.40 | < 5.00 | – | – | – |
| O=C(NO)C1(S(=O)(=O)c2ccc(N3CCCCC3CCOCc3ccccc3)cc2)CCOCC1 (stereo not drawn) [Example 509] | 6.28 | < 5.00 | < 5.00 | – | – | – |
| O=C(Nc1ccccc1)OC1CCN(c2ccc(S(=O)(=O)C3(C(=O)NO)CCOCC3)cc2)CC1 [Example 515] | 8.10 | 7.57 | – | < 5.00 | – | – |
| COc1ccc(C2CCN(c3ccc(S(=O)(=O)C4(C(=O)NO)CCOCC4)cc3)CC2)c(C)c1 [Example 823] | – | – | < 5.00 | – | 7 | 505 |
| O=C(NO)C1(S(=O)(=O)c2ccc(N3CCC(Oc4ccc(Cl)cc4F)CC3)cc2)CCOCC1 [Example 641] | 8.40 | 7.86 | < 5.00 | – | – | – |
| CC1CC(C)CN(C(=O)C2CCN(c3ccc(S(=O)(=O)C4(C(=O)NO)CCN(C(=O)CN5CCC(O)CC5)CC4)cc3)CC2)C1 (stereo not drawn) [Example 304] | 7.51 | 5.15 | < 5.00 | – | – | – |
| CCCCC(=O)C1CCN(c2ccc(S(=O)(=O)C3(C(=O)NO)CCOCC3)cc2)CC1 [Example 757] | 8.48 | 7.54 | < 5.00 | – | – | – |
| O=C(NO)C1(S(=O)(=O)c2ccc(N3CCC(OCc4ccc(COCC(F)(F)F)cc4)CC3)cc2)CCOCC1 [Example 607] | 8.54 | 6.66 | < 5.00 | – | – | – |
| O=C(NO)C1(S(=O)(=O)c2ccc(N3CCC(Oc4cccc5ccccc45)CC3)cc2)CCOCC1 [Example 614] | 7.66 | 7.60 | < 5.00 | – | – | – |
| Cc1ccc(OC2CCN(c3ccc(S(=O)(=O)C4(C(=O)NO)CCOCC4)cc3)CC2)cc1C [Example 637] | 8.42 | 7.66 | < 5.00 | – | – | – |
| O=C(NO)C1(S(=O)(=O)c2ccc(OC3CN(C(c4ccccc4)c4ccccc4)C3)cc2)CCOCC1 [Example 794] | 5.82 | 5.54 | < 5.00 | – | – | – |
| O=C(NO)C1(S(=O)(=O)c2ccc(N3CCN(c4ccccc4Cl)CC3)cc2)CCOCC1 [Example 88] | 8.05 | 7.40 | < 5.00 | – | – | – |
| COc1ccc(C(=O)C2CCN(c3ccc(S(=O)(=O)C4(C(=O)NO)CCOCC4)cc3)CC2)cc1F [Example 735] | 8.05 | 6.10 | < 5.00 | – | – | – |
| O=C(NO)C1(S(=O)(=O)c2ccc(N3CCCCC3CCOCc3cccc(C(F)(F)F)c3)cc2)CCOCC1 (stereo not drawn) [Example 512] | 5.11 | < 5.00 | < 5.00 | – | – | – |

| Compound | pIC50 (MMP-13) | pIC50 (MMP-2) | pIC50 (MMP-1; [1]) | pIC50 (MMP-1) | IC50 (MMP-13; MMP-13 IC50 (nM)) [nM] | IC50 (MMP-2; MMP-2 IC50 (nM)) [nM] |
| --- | --- | --- | --- | --- | --- | --- |
| COCCNCCCCC(=O)N1CCC(C(=O)NO)(S(=O)(=O)c2ccc(Oc3ccc(C(F)(F)F)cc3)cc2)CC1 [Example 347] | 8.52 | 9.15 | < 5.00 | – | – | – |
| O=C(CCCCN1CCCCC1)N1CCC(C(=O)NO)(S(=O)(=O)c2ccc(Oc3ccc(C(F)(F)F)cc3)cc2)CC1 [Example 334] | 9.15 | 9.52 | < 5.00 | – | – | – |
| O=C(NO)C1(S(=O)(=O)c2ccc(N3CCC(Sc4ccc(OC(F)(F)F)cc4)CC3)cc2)CCN(C2CC2)CC1 [Example 415] | 7.30 | 6.61 | < 5.00 | – | – | – |
| COc1ccc(S(=O)(=O)N2CCCN(c3ccc(S(=O)(=O)C4(C(=O)NO)CCOCC4)cc3)CC2)cc1 [Example 698] | 7.77 | 6.15 | < 5.00 | – | – | – |
| CC1CN(c2ccc(S(=O)(=O)C3(C(=O)NO)CCOCC3)cc2)CCC1OCc1ccc(F)cc1 (stereo not drawn) [Example 582] | 7.52 | 5.74 | < 5.00 | – | – | – |
| CCNCC(=O)N1CCC(C(=O)NO)(S(=O)(=O)c2ccc(N3CCC(C(=O)N4CC(C)CC(C)C4)CC3)cc2)CC1 (stereo not drawn) [Example 277] | 7.15 | < 5.00 | < 5.00 | – | – | – |
| COCCN1CCC(C(=O)NO)(S(=O)(=O)c2ccc(N3CCC(C(=O)NCc4ccccc4)CC3)cc2)CC1 [Example 247, N-Hydroxy-1-(2-methoxyethyl)-4-[[4-[4-[[(phenylmethyl)amino]carbonyl]-1-piperidinyl]phenyl]-sulfonyl]-4-piperidinecarboxamide, Monohydrochloride] | 7.46 | 5.80 | < 5.00 | – | – | – |
| O=C(Nc1ccccc1Cl)N1CCC(C(=O)NO)(S(=O)(=O)c2ccc(Oc3ccc(OC(F)(F)F)cc3)cc2)CC1 [Example 365] | 9.52 | 10.00 | < 5.00 | – | – | – |
| N#Cc1cccc(COC2CCN(c3ccc(S(=O)(=O)C4(C(=O)NO)CCOCC4)cc3)CC2)c1 [Example 560] | 8.35 | 6.51 | < 5.00 | – | – | – |
| CC1CCCC(S(=O)(=O)C2CCN(c3ccc(S(=O)(=O)C4(C(=O)NO)CCOCC4)cc3)CC2)C1 (stereo not drawn) [Example 822] | 8.00 | 6.68 | < 5.00 | – | – | – |
| COCCN1CCN(CC(=O)N2CCC(C(=O)NO)(S(=O)(=O)c3ccc(Oc4ccc(C(F)(F)F)cc4)cc3)CC2)CC1 [Example 330] | 9.30 | 9.15 | < 5.00 | – | – | – |
| CC1CCCN(c2ccc(S(=O)(=O)C3(C(=O)NO)CCOCC3)cc2)C1 (stereo not drawn) [Example 496] | 7.51 | 6.70 | < 5.00 | – | – | – |
| Tetrahydro-4-[[4-(pentaflourooxy)phenyl]sulfonyl]-2H-thiopyran-4-carboxamide [Example 225] | 6.74 | 7.38 | < 5.00 | – | – | – |
| COc1ccc(C(=O)C2CCN(c3ccc(S(=O)(=O)C4(C(=O)NO)CCN(c5ccncc5)CC4)cc3)CC2)cc1 [Example 438] | 8.85 | 6.80 | < 5.00 | – | – | – |
| O=C(NO)C1(S(=O)(=O)c2ccc(N3CCC([S+]([O-])c4ccccc4)CC3)cc2)CCN(C2CC2)CC1 (stereo not drawn) [Example 459] | 6.87 | 5.51 | < 5.00 | – | – | – |
| COCCc1ccc(OC2CCN(c3ccc(S(=O)(=O)C4(C(=O)NO)CCOCC4)cc3)CC2)cc1 [Example 643] | 8.74 | 8.92 | 5.22 | – | – | – |
| COc1cc(COC2CCN(c3ccc(S(=O)(=O)C4(C(=O)NO)CCOCC4)cc3)CC2)cc(OC)c1 [Example 178] | 7.74 | 6.49 | < 5.00 | – | – | – |
| CC(=O)N1CCC(C(=O)NO)(S(=O)(=O)c2ccc(N3CCC(C(=O)Nc4ccccc4)CC3)cc2)CC1 [Example 245, 1-Acetyl-N-hydroxy-4-[[4-[4-[(phenylamino)carbonyl]-1-piperidinyl]phenyl]sulfonyl]-4-piperidinecarboxamide] | 7.70 | 6.10 | < 5.00 | – | – | – |
